Results as given in patent US8575153B2 (Kowa Company, Ltd., priority 2008, dated 2013).

Columns and labels:
[1] = molecular target: Recombinant human JAK3 enzyme (JAK3 kinase region; Ala795-Ser1124) (Homo sapiens, UniProt P52333); test: JAK3 Kinase Assay (Kinase-Glo luminescent, ATP consumption); settings: read-out: Inhibition rate (%) of JAK3 kinase activity
Sequence of Recombinant human JAK3 enzyme (JAK3 kinase region; Ala795-Ser1124) (P52333 795-1124): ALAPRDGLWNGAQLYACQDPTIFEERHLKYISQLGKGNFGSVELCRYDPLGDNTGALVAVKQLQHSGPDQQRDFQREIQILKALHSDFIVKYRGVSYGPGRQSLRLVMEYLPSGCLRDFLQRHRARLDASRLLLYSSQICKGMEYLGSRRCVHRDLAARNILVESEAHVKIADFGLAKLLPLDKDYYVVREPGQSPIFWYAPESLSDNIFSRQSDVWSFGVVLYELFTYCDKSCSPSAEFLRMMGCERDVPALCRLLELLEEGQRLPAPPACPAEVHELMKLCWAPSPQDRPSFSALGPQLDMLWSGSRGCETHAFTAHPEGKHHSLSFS

Question: What does the source list for `NC(=O)c1cnc(Nc2ccc(N3CCC(O)CC3)cc2)cc1NCc1cc(F)cc(F)c1` [Example 191, 4-[(3,5-difluorobenzyl)amino]-6-{[4-(4-hydroxypiperidino)phenyl]amino}pyridine-3-carboxyamide]?
Answer: inhibition at 0.1 µM [1]: 63%; melting point: 238 to 240 °C (dec.)

Question: What does the source list for `Cc1cc(Nc2cc(NCc3cc(F)cc(F)c3)c(C(N)=O)cn2)ccc1N1CCOCC1` [Example 126, 4-[(3,5-difluorobenzyl)amino]-6-[(3-methyl-4-morpholinophenyl)amino]-pyridine-3-carboxyamide]?
Answer: inhibition at 0.1 µM [1]: 60%; melting point: 223 to 224 °C (dec.)

Question: Which inhibition at 0.1 µM [1] does the source give for `C[C@@H]1CN(c2ccc(Nc3cc(NCc4c(F)cccc4F)c(C(N)=O)cn3)cc2)C[C@H](C)N1` [Example 143, 4-[(2,6-difluorobenzyl)amino]-6-({4-[(3R,5S)-3,5-dimethylpiperazin-1-yl]phenyl}amino) pyridine-3-carboxyamide] here?
Answer: 88%

Question: And the melting point?
Answer: 218 to 219 °C

Question: With `CC(=O)N1CCCN(c2ccc(Nc3cc(NCc4ccccc4)c(C(N)=O)cn3)cc2)CC1` [Example 256, 6-{[4-(4-acetyl-1,4-diazepan-1-yl)phenyl]amino}-4-(benzylamino)pyridine-3-carboxyamide] as the molecule, how does the inhibition at 0.1 µM [1] read?
Answer: 77%

Question: What about the melting point of the same molecule?
Answer: 224 to 227 °C

Question: With `COC1CCN(c2ccc(Nc3cc(NCc4cc(F)cc(F)c4)c(C(N)=O)cn3)cc2)CC1` [Example 190, 4-[(3,5-difluorobenzyl)amino]-6-{[4-(4-methoxypiperidino)phenyl]amino}pyridine-3-carboxyamide] as the molecule, how does the inhibition at 0.1 µM [1] read?
Answer: 89%

Question: What about the melting point of the same molecule?
Answer: 202.9 to 203.3 °C (dec.)

Question: For `CC(C)S(=O)(=O)N1CCC(c2ccc(Nc3cc(NCc4cc(F)cc(F)c4)c(C(N)=O)cn3)cc2)CC1` [Example 296, 4-[(3,5-difluorobenzyl)amino]-6-({4-[1-(propan-2-ylsulfonyl)piperidin-4-yl]phenyl}amino) pyridine-3-carboxyamide], which melting point is on record?
Answer: 142 to 144 °C (dec.)

Question: Which results are given for `N#Cc1cc(Nc2cc(NCc3cc(F)cc(F)c3)c(C(N)=O)cn2)ccc1N1CCOCC1` [Example 125, 6-[(3-cyano-4-morpholinophenyl)amino]-4-[(3,5-difluorobenzyl)amino]pyridine-3-carboxyamide]?
Answer: inhibition at 0.1 µM [1]: 61%; melting point: 213.5 to 214.1 °C (dec.)

Question: For `CS(=O)(=O)Nc1ccc(Nc2cc(NCc3cc(F)cc(F)c3)c(C(N)=O)cn2)cc1` [Example 159, 4-[(3,5-difluorobenzyl)amino]-6-({4-[(methylsulfonyl)amino]phenyl}amino)pyridine-3-carboxyamide], which inhibition at 0.1 µM [1] is on record?
Answer: 100%

Question: And the melting point?
Answer: 236 to 238 °C (dec.)

Question: For `NC(=O)c1cnc(Nc2ccc(N3CCCNCC3)cc2)cc1NCc1ccccc1` [Example 226, 4-(benzylamino)-6-{[4-(1,4-diazepan-1-yl)phenyl]amino}pyridine-3-carboxyamide], which inhibition at 0.1 µM [1] is on record?
Answer: 61%

Question: And the melting point?
Answer: 165 to 167 °C

Question: For `NCCCc1ccc(Nc2cc(NCc3cc(F)cc(F)c3)c(C(N)=O)cn2)cc1` [Example 201, 6-{[4-(3-aminopropyl)phenyl]amino}-4-[(3,5-difluorobenzyl)amino]pyridine-3-carboxyamide], which inhibition at 0.1 µM [1] is on record?
Answer: 60%

Question: And the melting point?
Answer: 180 to 181 °C

Question: Which inhibition at 0.1 µM [1] does the source give for `NC(=O)c1cnc(Nc2cccc(N3CCOCC3)c2)cc1NCc1cc(F)cc(F)c1` [Example 131, 4-[(3,5-difluorobenzyl)amino]-6-[(3-morpholinophenyl)amino]pyridine-3-carboxyamide] here?
Answer: 91%

Question: And the melting point?
Answer: 197 to 198 °C (dec.)

Question: For `COc1cc(Nc2cc(NCc3cc(F)cc(F)c3)c(C(N)=O)cn2)ccc1N1CCOCC1` [Example 128, 4-[(3,5-difluorobenzyl)amino]-6-[(3-methoxy-4-morpholinophenyl)amino]pyridine-3-carboxyamide], which inhibition at 0.1 µM [1] is on record?
Answer: 92%

Question: And the melting point?
Answer: 229.6 to 230 °C (dec.)

Question: Which results are given for `CCN(CC)CC(=O)N1CCN(c2ccc(Nc3cc(NCc4cccc([N+](=O)[O-])c4)c(C(N)=O)cn3)cc2)CC1` [Example 276, 6-({4-[4-(N,N-diethylglycyl)piperazin-1-yl]phenyl}amino)-4-[(3-nitrobenzyl)amino]pyridine-3-carboxyamide]?
Answer: inhibition at 0.1 µM [1]: 68%; melting point: 190 to 191 °C (dec.)

Question: What does the source list for `CCCC(=O)N1CCN(c2ccc(Nc3cc(NCc4ccccc4)c(C(N)=O)cn3)cc2)CC1` [Example 258, 4-(benzylamino)-6-{[4-(4-butanoylpiperazin-1-yl)phenyl]amino}pyridine-3-carboxyamide]?
Answer: inhibition at 0.1 µM [1]: 60%; melting point: 233.5 to 235.2 °C (dec.)

Question: Which results are given for `NC(=O)c1cnc(Nc2ccc(N3CCC(=O)CC3)cc2)cc1NCc1cc(F)cc(F)c1` [Example 192, 4-[(3,5-difluorobenzyl)amino]-6-{[4-(4-oxopiperidino)phenyl]amino}pyridine-3-carboxyamide]?
Answer: inhibition at 0.1 µM [1]: 89%; melting point: 223 to 226 °C (dec.)

Question: For `NCCN1CCN(c2ccc(Nc3cc(NCc4cc(F)cc(F)c4)c(CC(N)=O)cn3)cc2)CC1` [Example 248, 6-({4-{4-(2-aminoethyl)piperazin-1-yl]phenyl}amino]-4-[(3,5-difluorobenzyl)amino]pyridine-3-carboxyamide], which melting point is on record?
Answer: 190 to 194 °C (dec.)

Question: For `CNCCN1CCN(c2ccc(Nc3cc(NCc4cc(F)cc(F)c4)c(C(N)=O)cn3)cc2)CC1` [Example 251, 4-[(3,5-difluorobenzyl)amino]-6-[(4-{4-[2-(methylamino)ethyl]piperazin-1-yl}phenyl)amino]pyridine-3-carboxyamide], which inhibition at 0.1 µM [1] is on record?
Answer: 88%

Question: What about the melting point of the same molecule?
Answer: 113 to 120 °C (dec.)

Question: Which results are given for `CC(C)S(=O)(=O)N1CCN(c2ccc(Nc3cc(NCc4cc(F)cc(F)c4)c(C(N)=O)cn3)cc2)CC1` [Example 170, 4-[(3,5-difluorobenzyl)amino]-6-({4-[4-(propan-2-ylsulfonyl)piperazin-1-yl]phenyl}amino) pyridine-3-carboxyamide]?
Answer: inhibition at 0.1 µM [1]: 68%; melting point: 239 to 242 °C (dec.)

Question: Which results are given for `NC(=O)c1cnc(Nc2ccc(N3CCOCC3)c(Cl)c2)cc1NCc1cc(F)cc(F)c1` [Example 127, 6-[(3-chloro-4-morpholinophenyl)amino]-4-[(3,5-difluorobenzyl)amino]pyridine-3-carboxyamide]?
Answer: inhibition at 0.1 µM [1]: 81%; melting point: 222 to 223 °C (dec.)

Question: With `N#CCCCN1CCN(c2ccc(Nc3cc(NCc4cccc([N+](=O)[O-])c4)c(C(N)=O)cn3)cc2)CC1` [Example 242, 6-({4-[4-(3-cyanopropyl)piperazin-1-yl]phenyl}amino)-4-[(3-nitrobenzyl)amino]pyridine-3-carboxyamide] as the molecule, how does the inhibition at 0.1 µM [1] read?
Answer: 77%

Question: What about the melting point of the same molecule?
Answer: 190 to 191 °C (dec.)

Question: With `CCN(CC)CCN1CCN(c2ccc(Nc3cc(NCc4cccc([N+](=O)[O-])c4)c(C(N)=O)cn3)cc2)CC1` [Example 235, 6-[(4-{4-[2-(diethylamino)ethyl]piperazin-1-yl}phenyl)amino]-4-[(3-nitrobenzyl)amino]pyridine-3-carboxyamide] as the molecule, how does the inhibition at 0.1 µM [1] read?
Answer: 82%

Question: And the melting point?
Answer: 165 to 166 °C

Question: With `NC(=O)c1cnc(Nc2ccc(NC3CCNCC3)cc2)cc1NCc1ccccc1` [Example 289, 4-(benzylamino)-6-{[4-(piperidin-4-ylamino)phenyl]amino}pyridine-3-carboxyamide] as the molecule, how does the inhibition at 0.1 µM [1] read?
Answer: 74%

Question: And the melting point?
Answer: 169 to 172 °C (dec.)

Question: For `CS(=O)(=O)NCCN1CCN(c2ccc(Nc3cc(NCc4cc(F)cc(F)c4)c(C(N)=O)cn3)cc2)CC1` [Example 249, 4-[(3,5-difluorobenzyl)amino]-6-{[4-(4-{2-[(methylsulfonyl)amino]ethyl}piperazin-1-yl]phenyl]amino}pyridine-3-carboxyamide], which inhibition at 0.1 µM [1] is on record?
Answer: 81%

Question: What about the melting point of the same molecule?
Answer: 216 to 219 °C (dec.)

Question: With `CCN(CC)CC(=O)N1CCC(c2ccc(Nc3cc(NCc4ccccc4)c(C(N)=O)cn3)cc2)CC1` [Example 277, 4-(benzylamino)-6-({4-[1-(N,N-diethylglycyl)piperidin-4-yl]phenyl}amino)pyridine-3-carboxyamide] as the molecule, how does the inhibition at 0.1 µM [1] read?
Answer: 70%

Question: Which inhibition at 0.1 µM [1] does the source give for `CC(C)C(=O)N1CCN(c2ccc(Nc3cc(NCc4ccccc4)c(C(N)=O)cn3)cc2)CC1` [Example 259, 4-(benzylamino)-6-({4-[4-(2-methylpropanoyl)piperazin-1-yl]phenyl}amino)pyridine-3-carboxyamide] here?
Answer: 67%

Question: What about the melting point of the same molecule?
Answer: 218 to 220 °C (dec.)

Question: Which inhibition at 0.1 µM [1] does the source give for `CC(C)NC(=O)N1CCC(Nc2ccc(Nc3cc(NCc4ccccc4)c(C(N)=O)cn3)cc2)CC1` [Example 291, 4-(benzylamino)-6-[(4-{[1-(propan-2-ylcarbamoyl)piperidin-4-yl]amino}phenyl)amino]pyridine-3-carboxyamide] here?
Answer: 79%

Question: And the melting point?
Answer: 166 to 167 °C

Question: With `CS(=O)(=O)N1CCN(c2ccc(Nc3cc(NC4CCCCC4)c(C(N)=O)cn3)cc2)CC1` [Example 346, 4-cyclohexylamino-6-({4-[4-(methylsulfonyl)piperazin-1-yl]phenyl}amino)pyridine-3-carboxyamide] as the molecule, how does the inhibition at 1 µM [1] read?
Answer: 72%

Question: With `CC(C)S(=O)(=O)Nc1cccc(Nc2cc(NCc3cc(F)cc(F)c3)c(C(N)=O)cn2)c1` [Example 165, 4-[(3,5-difluorobenzyl)amino]-6-({3-[(propan-2-ylsulfonyl)amino]phenyl}amino)pyridine-3-carboxyamide] as the molecule, how does the inhibition at 0.1 µM [1] read?
Answer: 54%

Question: Which inhibition at 0.1 µM [1] does the source give for `NC(=O)c1cnc(Nc2ccc(NCCN3CCOCC3)cc2)cc1NCc1ccccc1` [Example 70, 4-(benzylamino)-6-({4-[(2-morpholinoethyl)amino]phenyl}amino)pyridine-3-carboxyamide] here?
Answer: 75%

Question: With `NC(=O)c1cnc(Nc2ccc(N3CCC(O)CC3)cc2)cc1NCc1cccc(F)c1F` [Example 187, 4-[(2,3-difluorobenzyl)amino]-6-{[4-(4-hydroxypiperidino)phenyl]amino}pyridine-3-carboxyamide] as the molecule, how does the inhibition at 0.1 µM [1] read?
Answer: 85%

Question: What does the source list for `Cc1c(F)cccc1CNc1cc(Nc2ccc(N3CCOCC3)cc2)ncc1C(N)=O` [Example 100, 4-[(3-fluoro-2-methylbenzyl)amino]-6-[(4-morpholinophenyl)amino]pyridine-3-carboxyamide]?
Answer: inhibition at 0.1 µM [1]: 69%; melting point: 229 to 230 °C
